Data from US12357695B2, “Peptides and nanoparticles for intracellular delivery of molecules” (AADIGEN, LLC, priority 2019, dated 2025).
Square brackets hold non-standard residues; d marks the D form. Ends that are not written are not given here. Stearyl = stearyl group covalently linked to the N-terminus; βAla = NCCC(=O)O

How the values were obtained:
mice = assay: In vivo delivery of Luciferase mRNA, intravenous administration, bioluminescence imaging; conditions: 5 μg Luc mRNA; for mRNA / luciferase expression and tissues: single dose
Procedure: FIGS. 4A-4D show the potency of ADGN-peptide variants for in vivo delivery of Luciferase mRNA via intravenous administration in mice. ADGN-peptide/luc mRNA particles containing 5 μg mRNA were formed in sterile water, and then diluted in 5% sucrose. Mice received IV injection of 100 μl ADGN-peptide/mRNA complexes. mRNA LUC expression was monitored by bioluminescence imaging after 12 h, 24 h, 48 h and 72 h. FIG. 4B show bioluminescence imaging at 24 hr in control and treated groups. Semi-quantitative data of luciferase signal in the liver (C) and in the lung (D) were obtained using the manufacturer's software (Living Image; PerkinElmer). Results were then expressed as values relative to day 0.
Stable ADGN-peptides/mRNA were evaluated for in vivo delivery of Luciferase mRNA via intravenous and intramuscular administrations. Animals were treated with single dose of 5 moU modified Luc mRNA of 5 μg. 5 moU modified Luc mRNA (5 μg) in sterile water (GIBCO) were mixed with ADGN peptide (sterile water), volume for each sample was adjusted to 100 μl, with sterile water containing 5% Sucrose. Samples were mixed gently with vortex for 1 minute at low speed and incubated for 30 min at room temperature. Samples were filtered on 0.45 μm PES filters prior administration. For IV administration Mice received 100 μl intravenous (IV) injection of either ADGN-106/mRNA, ADGN-100/mRNA, ADGN-106RI/mRNA, ADGN-100-stearyl/mRNA, ADGN-100Hydro1/mRNA, ADGN-100Hydro2 or ADGN/mRNA complexes containing 10% of ADGN-100PEG (3 animals per group). As control, mice from group 3 (2 animals per group) received IV injection of 100 μl of naked 5 moU modified Luc mRNA (5 μg). For IM administration, mice received 25 μl (5 μg mRNA) IV injection of either ADGN-100/mRNA, ADGN-106/mRNA, ADGN-106RI/mRNA or ADGN/mRNA complexes containing 10% or 20% of ADGN-100PEG (2 animals per group). As control, mice from group 3 (2 animals per group) received IV injection of 25 μl of naked 5 moU modified Luc mRNA (5 μg).
mRNA Luc expression was monitored by bioluminescence. Bioluminescence imaging was performed after 12, 24, 48 and 72 hrs. Mice received an i.p. injection of 150 μg/g luciferin for noninvasive bioluminescence imaging (IVIS Kinetic; PerkinElmer, Waltham, MA, USA).

293T cells = assay: Cellular delivery of Luciferase mRNA, luciferase expression at 72 hrs; type: cell-based; conditions: 0.25 μg Luc mRNA; for reduction of efficiency / luciferase expression after serum treatment: complexes incubated 3 hrs in 25% serum prior transfection; for reduction of efficiency / luciferase expression after heparan sulfate treatment: complexes incubated 3 hrs with heparan sulfate prior transfection; for luciferase expression: absence of serum or heparan sulfate treatment
Procedure: FIGS. 1A-1C show luciferase expression in 293T cells treated with ADGN-peptide/mRNA complexes. 293T cells cultured in 48 well plates were transfected with ADGN-peptide nanoparticles. ADGN-100, ADGN-106, ADGN-100RI, ADGN-106RI, ADGN-100 Stearyl, ADGN-Hydro1, ADGN-Hydro2, ADGN-Hydro3, ADGN-Hydro4, ADGN-Hydro5, ADGN-Hydro6 and ADGN-peptide/ADGN-100PEG 10% nanoparticles containing 0.25 μg mRNA were formed in sterile water, diluted in sterile water containing 5% Sucrose and filtered with 0.45 μm PES filters. ADGN/mRNA complexes were incubated for 3 hrs in the presence of either 25% serum or heparan sulfate prior transfection. Luciferase expression was monitored 72 hours post transfection and results were reported as RLU (luminescence):mg of protein.
Complex formation with mRNA. The following protocols were used for the transfection of 2-5 106 Cells or Cells at confluency of about 70-80% cultured in 24 well plates. ADGN peptide/mRNA particles were prepared at a 20:1 molar ratio of ADGN-Peptide/mRNA. using (0.25 μg) mRNA. Luc mRNA (0.25 μg) was diluted in 20 μl of sterile water (GIBCO) at room temperature. 5 μl Final Peptide Solution was added to obtain a total volume of 20 μl. The volume was adjusted to 50 μl with sterile water and was mixed gently with vortex 1 min low speed and incubated 30 min at room temperature. Then the volume was made up to 100 μl by adding sterile water containing 5% sucrose, and the solution was mixed gently with vortex 1 min low speed and incubate 5 min at 37° C. and then was proceeded to cell transfection.
Transfection protocol. Protocol is reported for 24 well plate format. Cells were cultured in Dulbecco's Modified Eagle's Medium (DMEM), supplemented with 2 mM glutamine, 1% antibiotics (streptomycin 10,000 μg/mL, penicillin, 10,000 IU/mL) and 10% (w/v) foetal calf serum (FCS), at 37° C. in a humidified atmosphere containing 5% CO2. 24 well plates seeded with 150,000 cells the day prior to transfection were grown to 50-60% confluence and set up to be at about 70% confluences at the time of transfection. Before transfection, cells were washed twice with DMEM. Cells were then overlaid with 0.1 ml of ADGN-peptide/cargo complex solution containing 0.25 μg mRNA, 0.15 μg plasmid DNA or 10-25 nM siRNA, mixed gently, and incubated for 10 min at 37° C. 0.2 mL of fresh DMEM, were added and cells were incubated for 20 min at 37° C. 1 mL of complete DMEM containing 15% FCS were then added in order to reach a final FCS concentration of 10%, without removing the overlay of ADGN-peptide/cargo complexes. Cells were returned to the incubator (37° C., 5% CO2) and 72 hrs post transfection.
ADGN-peptides were evaluated for cellular delivery of Luciferase mRNA in 293T cells. A single dose of mRNA of 0.25 μg was evaluated. Luc mRNA (0.25 μg) in sterile water (GIBCO) were mixed with ADGN-100, ADGN-100RI, ADGN-106, ADGN-106RI, ADGN-100 Stearyl, ADGN-Hydro1, ADGN-Hydro2, ADGN-Hydro5 and ADGN-Hydro6. ADGN-peptide/mRNA complexes were filtered with 0.45 μm PES filter. In order to evaluate the stability of the ADGN/mRNA complexes in high serum and cell culture conditions, the complexes were incubated for 3 hrs in the presence of either 25% serum or heparan sulfate prior transfection, then 293T cells were transfected and Luciferase expression was monitored at 72 hrs.
ADGN-106 peptides containing YIGSR targeting sequence were evaluated for cellular delivery of Luciferase mRNA in 293T cells. A single dose of mRNA of 0.25 μg was evaluated. Luc mRNA (0.25 μg) in sterile water (GIBCO) were mixed with ADGN-106 and ADGN-106Hydro variant. ADGN-peptide/mRNA complexes were filtered with 0.45 μm PES filter. The ADGN-106/mRNA complexes were incubated for 3 hrs in the presence of 25% serum prior transfection, then 293T cells were transfected and Luciferase expression was monitored at 72 hrs.

[1] = absence of serum or heparan sulfate

| Substance | mRNA / luciferase expression and tissues (mice) | reduction of efficiency / luciferase expression by modification or linker vs unmodified ADGN peptide (293T cells; [1]) | reduction of efficiency / luciferase expression after serum treatment (293T cells) [%] | reduction of efficiency / luciferase expression after heparan sulfate treatment (293T cells) [%] | increase of luciferase expression / efficiency relative to ADGN-106 (mice; all / different tissues) [fold] | luciferase expression (293T cells) | potency relative to ADGN-100 (293T cells; [1]) [fold] | efficiency relative to ADGN-100 (mice) [folds] | efficiency relative to ADGN-100 stearyl (mice) [folds] |
| --- | --- | --- | --- | --- | --- | --- | --- | --- | --- |
| Ac-GYVS-(G)4-KWRSALWRWRLWRVRSWSR-NH2 (Ac-GYVSGGGGKWRSALWRWRLWRVRSWSR-NH2) [ADGN-100 hydro-2] | negligible luciferase expression |  |  |  |  |  |  |  |  |
| Stearyl-βA-KWRSALWRWRLWRVRSWSR-NH2 (Stearyl-[βAla]KWRSALWRWRLWRVRSWSR-NH2; not fully specified; printed as Stearyl-βA-KWRSALWRWRLWRVRSWSR-NH2) [ADGN-100 Stearyl] | mainly observed in the liver and at lower level in the lung and the kidney | not significantly affected |  |  |  |  |  |  |  |
| akwllrwlsrwlrwlarwlr ([dA][dK][dW][dL][dL][dR][dW][dL][dS][dR][dW][dL][dR][dW][dL][dA][dR][dW][dL][dR]; also: retro-inverso) [ADGN-106-RI] | mainly observed in the liver and at lower level in the lung and the kidney | did not modify | 26 | 13 | 2 |  |  |  |  |
| rswsrvrwlrwrwgasrwk ([dR][dS][dW][dS][dR][dV][dR][dW][dL][dR][dW][dR][dW]G[dA][dS][dR][dW][dK]; also: retro-inverso) [ADGN-100-RI] |  | did not modify | 40 | 16 |  |  |  |  |  |
| βAKWRSAGWRWRLW RVRSWSR (AKWRSAGWRWRLWRVRSWSR; N-terminal beta-alanine; VARIANT 1 beta-A) [ADGN-100] | mainly observed in the liver and at lower level in the lung and the kidney |  | 90 | 50 |  | high level of luciferase expression |  |  |  |
| βALWRALWRLWRSLWRLLWKA ([βAla]LWRALWRLWRSLWRLLWKA) [ADGN-106] | mainly observed in the liver and at lower level in the lung and the kidney |  |  | 50 |  | high level of luciferase expression | 2 | 4 | 2 |
